Values of other authors, collected in patent US20190298799A1, “CONTROLLED-RELEASE APOPTOSIS MODULATING COMPOSITIONS AND METHODS FOR THE TREATMENT OF OTIC DISORDERS” (Otonomy, Inc., priority 2008, published 2019).

Columns and labels:
[1] = tested on: neurons and otic hair cells
[2] = tested on: cochlear culture; details: culture first treated with the inhibitor, then neomycin and/or cisplatin

Structure (SMILES) | protection from aminoglycoside ototoxicity [1] | apoptosis in cochlear culture [2]
CC(=O)N[C@@H](CC(C)C)C(=O)N[C@@H](CC(C)C)C(=O)N[C@H](C=O)CCCNC(=N)N [Leupeptine, leupeptine] | protects neurons and otic hair cells from aminoglycoside ototoxicity | –
C[S+]([O-])c1ccc(-c2nc(-c3ccc(F)cc3)c(-c3ccncc3)[nH]2)cc1 (centres unmarked) [SB-203580, 4-(4-Fluorophenyl)-2-(4-methylsulfinylphenyl)-5-(4-pyridyl) 1H-imidazole] | – | apoptosis is decreased
